According to ChEMBL document CHEMBL3991601, “The target landscape of clinical kinase drugs” (Science, 2017):
The source made the active and inactive calls. For most assays here, no stated cut-off is given here; in the data, actives have a measured Kd and inactives only a lower limit.

Key:
[1] = biological target: Serine/threonine-protein kinase N1 (Homo sapiens, UniProt Q16512)
[2] = biological target: Serine/threonine-protein kinase PAK 2 (Homo sapiens, UniProt Q13177)
[3] = biological target: Serine/threonine-protein kinase 26 (Homo sapiens, UniProt Q9P289)
[4] = biological target: T1, Activin receptor type-1B (Homo sapiens, UniProt P36896)
T1 sequence (P36896 whole entry): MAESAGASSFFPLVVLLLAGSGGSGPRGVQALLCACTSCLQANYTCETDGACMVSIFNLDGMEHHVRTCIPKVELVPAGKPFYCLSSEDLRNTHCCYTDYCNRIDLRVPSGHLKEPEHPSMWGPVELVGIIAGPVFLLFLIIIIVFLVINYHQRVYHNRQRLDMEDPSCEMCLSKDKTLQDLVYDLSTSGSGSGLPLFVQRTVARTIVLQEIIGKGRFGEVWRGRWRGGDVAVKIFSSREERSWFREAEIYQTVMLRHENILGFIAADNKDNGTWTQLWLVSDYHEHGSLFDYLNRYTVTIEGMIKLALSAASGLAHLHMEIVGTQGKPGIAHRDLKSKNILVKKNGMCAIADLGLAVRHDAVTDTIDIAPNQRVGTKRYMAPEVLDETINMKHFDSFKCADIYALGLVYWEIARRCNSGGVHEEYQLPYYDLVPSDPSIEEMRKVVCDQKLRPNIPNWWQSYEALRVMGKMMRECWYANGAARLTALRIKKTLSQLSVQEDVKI

[5] = biological target: Ephrin type-A receptor 4 (Homo sapiens, UniProt P54764)
[6] = biological target: T2, Tyrosine-protein kinase Tec (Homo sapiens, UniProt P42680)
T2 sequence (P42680 whole entry): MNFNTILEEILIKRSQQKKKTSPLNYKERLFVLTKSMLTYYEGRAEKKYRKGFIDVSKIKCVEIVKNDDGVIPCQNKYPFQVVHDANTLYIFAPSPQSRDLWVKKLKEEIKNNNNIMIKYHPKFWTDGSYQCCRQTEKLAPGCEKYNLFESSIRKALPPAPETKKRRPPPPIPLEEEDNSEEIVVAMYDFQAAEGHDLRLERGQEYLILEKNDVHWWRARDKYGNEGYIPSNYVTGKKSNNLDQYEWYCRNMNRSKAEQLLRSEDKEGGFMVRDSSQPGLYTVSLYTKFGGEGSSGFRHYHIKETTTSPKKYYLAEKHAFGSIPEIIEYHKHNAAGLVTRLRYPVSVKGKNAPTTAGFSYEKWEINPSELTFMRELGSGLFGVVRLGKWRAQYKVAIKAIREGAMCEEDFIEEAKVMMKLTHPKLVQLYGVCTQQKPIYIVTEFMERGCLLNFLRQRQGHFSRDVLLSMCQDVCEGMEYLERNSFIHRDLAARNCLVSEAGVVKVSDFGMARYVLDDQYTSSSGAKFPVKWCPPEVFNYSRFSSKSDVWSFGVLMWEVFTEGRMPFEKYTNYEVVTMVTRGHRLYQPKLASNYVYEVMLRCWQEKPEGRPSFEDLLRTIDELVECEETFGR

[7] = biological target: Mitogen-activated protein kinase 1 (Homo sapiens, UniProt P28482)
[8] = biological target: cAMP-dependent protein kinase catalytic subunit alpha (Homo sapiens, UniProt P17612)
[9] = biological target: T3, Septin-9 (Homo sapiens, UniProt Q9UHD8)
T3 sequence (Q9UHD8 whole entry): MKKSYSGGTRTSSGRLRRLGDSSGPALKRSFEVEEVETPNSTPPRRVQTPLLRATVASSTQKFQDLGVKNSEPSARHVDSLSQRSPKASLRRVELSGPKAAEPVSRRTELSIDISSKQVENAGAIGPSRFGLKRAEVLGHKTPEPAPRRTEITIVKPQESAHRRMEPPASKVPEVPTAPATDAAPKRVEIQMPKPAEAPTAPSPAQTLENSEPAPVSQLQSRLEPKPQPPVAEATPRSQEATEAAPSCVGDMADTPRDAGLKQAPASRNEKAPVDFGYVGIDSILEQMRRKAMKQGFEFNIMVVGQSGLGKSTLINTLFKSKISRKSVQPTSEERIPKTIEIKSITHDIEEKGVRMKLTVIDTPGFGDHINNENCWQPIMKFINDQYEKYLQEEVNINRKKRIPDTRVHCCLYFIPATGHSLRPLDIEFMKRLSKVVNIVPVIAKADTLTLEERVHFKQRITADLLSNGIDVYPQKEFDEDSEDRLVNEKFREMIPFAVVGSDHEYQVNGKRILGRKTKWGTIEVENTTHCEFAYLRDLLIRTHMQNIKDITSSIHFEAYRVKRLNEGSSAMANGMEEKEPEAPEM

[10] = biological target: T4, ATP-dependent 6-phosphofructokinase, platelet type (Homo sapiens, UniProt Q01813)
T4 sequence (Q01813 whole entry): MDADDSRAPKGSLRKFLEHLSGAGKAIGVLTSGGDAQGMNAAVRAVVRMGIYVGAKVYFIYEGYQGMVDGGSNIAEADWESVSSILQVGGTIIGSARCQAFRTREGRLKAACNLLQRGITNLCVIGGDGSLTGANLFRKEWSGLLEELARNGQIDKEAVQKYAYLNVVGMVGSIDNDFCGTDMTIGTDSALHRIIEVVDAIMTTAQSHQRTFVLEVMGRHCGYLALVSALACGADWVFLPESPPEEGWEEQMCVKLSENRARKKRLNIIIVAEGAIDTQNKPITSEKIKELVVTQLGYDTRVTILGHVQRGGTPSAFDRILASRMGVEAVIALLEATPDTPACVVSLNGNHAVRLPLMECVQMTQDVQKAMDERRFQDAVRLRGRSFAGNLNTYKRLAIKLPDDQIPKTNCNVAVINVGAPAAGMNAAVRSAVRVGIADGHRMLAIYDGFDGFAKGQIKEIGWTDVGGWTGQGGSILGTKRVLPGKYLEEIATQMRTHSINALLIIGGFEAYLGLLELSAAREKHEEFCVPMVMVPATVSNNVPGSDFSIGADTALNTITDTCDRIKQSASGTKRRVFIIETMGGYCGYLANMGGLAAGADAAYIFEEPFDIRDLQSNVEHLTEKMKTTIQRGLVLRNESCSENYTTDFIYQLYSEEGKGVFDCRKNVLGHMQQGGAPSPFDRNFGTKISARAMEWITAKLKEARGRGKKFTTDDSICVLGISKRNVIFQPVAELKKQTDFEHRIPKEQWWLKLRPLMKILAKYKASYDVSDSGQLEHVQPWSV

Sequence of Serine/threonine-protein kinase 26 (Q9P289 whole entry): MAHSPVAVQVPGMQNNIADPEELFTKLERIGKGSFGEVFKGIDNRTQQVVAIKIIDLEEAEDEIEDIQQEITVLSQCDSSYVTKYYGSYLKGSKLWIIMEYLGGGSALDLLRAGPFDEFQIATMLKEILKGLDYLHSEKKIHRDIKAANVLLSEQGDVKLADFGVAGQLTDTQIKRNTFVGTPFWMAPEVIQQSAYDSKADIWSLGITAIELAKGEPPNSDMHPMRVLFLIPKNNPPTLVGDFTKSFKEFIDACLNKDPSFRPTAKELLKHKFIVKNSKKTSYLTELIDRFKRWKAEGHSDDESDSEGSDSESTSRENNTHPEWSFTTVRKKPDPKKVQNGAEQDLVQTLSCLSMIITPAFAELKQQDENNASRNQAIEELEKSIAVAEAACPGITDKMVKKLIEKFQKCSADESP
Sequence of Serine/threonine-protein kinase N1 (Q16512 whole entry): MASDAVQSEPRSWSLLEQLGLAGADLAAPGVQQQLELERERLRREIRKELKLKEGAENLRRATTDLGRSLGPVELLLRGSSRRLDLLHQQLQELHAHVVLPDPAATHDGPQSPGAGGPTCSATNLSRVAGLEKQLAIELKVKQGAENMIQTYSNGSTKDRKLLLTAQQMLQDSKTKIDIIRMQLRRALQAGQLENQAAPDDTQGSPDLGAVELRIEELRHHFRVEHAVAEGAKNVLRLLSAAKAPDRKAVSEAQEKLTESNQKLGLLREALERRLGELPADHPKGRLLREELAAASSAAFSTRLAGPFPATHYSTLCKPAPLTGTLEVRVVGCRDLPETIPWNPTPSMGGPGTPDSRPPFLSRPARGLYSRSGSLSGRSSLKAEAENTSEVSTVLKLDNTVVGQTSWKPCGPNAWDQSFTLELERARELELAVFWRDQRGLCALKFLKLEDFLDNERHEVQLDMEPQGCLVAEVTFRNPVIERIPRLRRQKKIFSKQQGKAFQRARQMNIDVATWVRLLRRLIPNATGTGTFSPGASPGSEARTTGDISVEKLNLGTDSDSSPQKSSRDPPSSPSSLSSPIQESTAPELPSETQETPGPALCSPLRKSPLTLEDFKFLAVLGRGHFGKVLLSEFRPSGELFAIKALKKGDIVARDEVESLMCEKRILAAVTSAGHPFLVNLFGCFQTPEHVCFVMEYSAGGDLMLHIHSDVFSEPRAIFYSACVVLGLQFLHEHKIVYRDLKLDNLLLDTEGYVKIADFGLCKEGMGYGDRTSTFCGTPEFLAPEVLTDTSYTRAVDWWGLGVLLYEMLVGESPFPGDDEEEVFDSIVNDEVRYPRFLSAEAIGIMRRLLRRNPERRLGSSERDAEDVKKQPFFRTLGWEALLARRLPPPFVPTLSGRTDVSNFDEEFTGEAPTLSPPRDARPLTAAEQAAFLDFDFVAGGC
Sequence of Serine/threonine-protein kinase PAK 2 (Q13177 whole entry): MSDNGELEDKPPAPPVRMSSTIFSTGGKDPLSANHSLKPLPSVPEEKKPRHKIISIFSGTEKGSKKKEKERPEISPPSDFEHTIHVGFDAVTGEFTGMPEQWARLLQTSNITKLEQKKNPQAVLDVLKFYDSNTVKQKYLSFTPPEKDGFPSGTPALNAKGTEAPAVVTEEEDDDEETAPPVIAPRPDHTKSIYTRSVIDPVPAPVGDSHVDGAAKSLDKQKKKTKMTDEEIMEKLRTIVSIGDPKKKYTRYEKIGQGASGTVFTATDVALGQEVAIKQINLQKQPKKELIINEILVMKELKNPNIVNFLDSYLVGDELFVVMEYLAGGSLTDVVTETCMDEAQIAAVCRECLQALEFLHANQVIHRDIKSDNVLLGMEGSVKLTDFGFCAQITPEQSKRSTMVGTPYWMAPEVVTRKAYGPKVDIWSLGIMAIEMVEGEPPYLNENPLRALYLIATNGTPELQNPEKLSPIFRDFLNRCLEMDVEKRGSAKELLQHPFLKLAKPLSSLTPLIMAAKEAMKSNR
Sequence of Ephrin type-A receptor 4 (P54764 whole entry): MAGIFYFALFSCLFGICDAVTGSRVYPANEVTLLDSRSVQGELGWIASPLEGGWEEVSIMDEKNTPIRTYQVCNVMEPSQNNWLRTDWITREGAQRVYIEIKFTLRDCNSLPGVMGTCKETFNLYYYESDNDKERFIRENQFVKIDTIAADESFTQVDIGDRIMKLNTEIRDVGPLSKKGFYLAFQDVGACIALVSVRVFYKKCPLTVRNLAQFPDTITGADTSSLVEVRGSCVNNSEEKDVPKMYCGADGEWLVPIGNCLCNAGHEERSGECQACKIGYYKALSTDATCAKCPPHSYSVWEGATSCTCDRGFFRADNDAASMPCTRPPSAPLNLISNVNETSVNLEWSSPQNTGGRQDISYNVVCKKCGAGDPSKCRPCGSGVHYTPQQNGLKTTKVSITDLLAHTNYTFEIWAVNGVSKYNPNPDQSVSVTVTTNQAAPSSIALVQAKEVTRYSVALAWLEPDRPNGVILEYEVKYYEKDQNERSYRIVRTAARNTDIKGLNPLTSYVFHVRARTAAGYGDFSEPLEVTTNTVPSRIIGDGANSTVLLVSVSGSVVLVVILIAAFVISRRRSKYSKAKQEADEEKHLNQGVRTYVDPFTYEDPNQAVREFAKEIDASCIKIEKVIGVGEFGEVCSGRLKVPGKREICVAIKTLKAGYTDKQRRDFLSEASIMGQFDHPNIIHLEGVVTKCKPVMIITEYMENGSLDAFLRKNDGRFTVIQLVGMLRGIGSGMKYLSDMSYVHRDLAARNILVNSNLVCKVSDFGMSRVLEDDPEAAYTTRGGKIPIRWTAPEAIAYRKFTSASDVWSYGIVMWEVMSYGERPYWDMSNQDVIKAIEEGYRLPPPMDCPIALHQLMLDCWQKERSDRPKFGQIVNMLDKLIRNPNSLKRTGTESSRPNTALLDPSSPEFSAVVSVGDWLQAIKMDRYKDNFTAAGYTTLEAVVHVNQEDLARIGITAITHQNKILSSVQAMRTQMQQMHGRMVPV
Sequence of Mitogen-activated protein kinase 1 (P28482 whole entry): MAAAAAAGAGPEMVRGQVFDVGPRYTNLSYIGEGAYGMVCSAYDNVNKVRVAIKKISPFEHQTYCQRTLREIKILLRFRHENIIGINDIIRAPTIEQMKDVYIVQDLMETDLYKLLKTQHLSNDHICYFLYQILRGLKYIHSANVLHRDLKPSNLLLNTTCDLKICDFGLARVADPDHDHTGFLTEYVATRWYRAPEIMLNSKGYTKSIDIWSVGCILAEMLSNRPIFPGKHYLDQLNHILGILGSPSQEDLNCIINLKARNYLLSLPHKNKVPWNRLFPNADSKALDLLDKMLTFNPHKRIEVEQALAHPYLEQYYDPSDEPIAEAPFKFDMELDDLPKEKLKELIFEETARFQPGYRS

Row | Structure (SMILES) | Kd [1] | Kd [2] | Kd [3] | Kd [4] | Kd [5] | Kd [6] | Kd [7] | Kd [8] | Kd [9] | Kd [10]
1 | C[C@@H](Oc1cc(C(=O)Nc2ccc(C(=O)N3CCN(C)CC3)cc2)nnc1N)c1c(Cl)ccc(F)c1Cl | > 30 µM (inactive) | > 30 µM (inactive) | > 30 µM (inactive) | > 30 µM (inactive) | > 30 µM (inactive) | > 30 µM (inactive) | > 30 µM (inactive) | > 30 µM (inactive) |  | 
2 | CCNC(=O)C#Cc1ccc2c(c1)NC(=O)/C2=C(\Nc1ccc(CN(C)C)cc1)c1ccccc1 | > 30 µM (inactive) | > 30 µM (inactive) | > 30 µM (inactive) | > 30 µM (inactive) | > 30 µM (inactive) | 0.885 µM (active) | > 30 µM (inactive) | > 30 µM (inactive) | > 30 µM (inactive) | > 30 µM (inactive)
3 | Cc1nc2cc(-c3nn(C(C)C)c4ncnc(N)c34)ccc2o1 | > 30 µM (inactive) | > 30 µM (inactive) | 2.19 µM (active) | 0.767 µM (active) | > 30 µM (inactive) | > 30 µM (inactive) | > 30 µM (inactive) | > 30 µM (inactive) | > 30 µM (inactive) | > 30 µM (inactive)
4 | COCc1c(-c2ccc(NC(=O)Nc3cc(C(F)(F)F)ccc3F)c(F)c2)c2c(N)ncnn2c1CN1CCOCC1 | > 30 µM (inactive) | > 30 µM (inactive) | > 30 µM (inactive) | > 30 µM (inactive) | > 30 µM (inactive) | > 30 µM (inactive) | > 30 µM (inactive) | > 30 µM (inactive) | > 30 µM (inactive) | > 30 µM (inactive)
5 | Nc1ncnc2c1c(-c1cccc(OCc3ccccc3)c1)cn2[C@H]1C[C@@H](CN2CCC2)C1 [AEW-541] | > 30 µM (inactive) | > 30 µM (inactive) | > 30 µM (inactive) | > 30 µM (inactive) | > 30 µM (inactive) | > 30 µM (inactive) | > 30 µM (inactive) | > 30 µM (inactive) | > 30 µM (inactive) | > 30 µM (inactive)
6 | Cc1nc(NC(=O)N2CCC[C@H]2C(N)=O)sc1-c1ccnc(C(C)(C)C(F)(F)F)c1 [ALPELISIB] | > 30 µM (inactive) | > 30 µM (inactive) | > 30 µM (inactive) | > 30 µM (inactive) | > 30 µM (inactive) | > 30 µM (inactive) | > 30 µM (inactive) | > 30 µM (inactive) | > 30 µM (inactive) | > 30 µM (inactive)
7 | Cc1csc(-c2nnc(Nc3ccc(Oc4ncccc4-c4ccnc(N)n4)cc3)c3ccccc23)c1 [AMG-900] | > 30 µM (inactive) | > 30 µM (inactive) | 3.02 µM (active) | > 30 µM (inactive) | > 30 µM (inactive) | > 30 µM (inactive) | > 30 µM (inactive) | > 30 µM (inactive) | > 30 µM (inactive) | > 30 µM (inactive)
8 | COc1cc([C@@H]2c3cc4c(cc3[C@H](O)[C@H]3COC(=O)[C@@H]23)OCO4)cc(OC)c1OC [AXL-1717] | > 30 µM (inactive) | > 30 µM (inactive) | > 30 µM (inactive) | > 30 µM (inactive) | > 30 µM (inactive) | > 30 µM (inactive) | > 30 µM (inactive) | > 30 µM (inactive) | > 30 µM (inactive) | > 30 µM (inactive)

Next, values leading:

Row | Kd [1] | Kd [2] | Kd [3] | Kd [4] | Kd [5] | Kd [6] | Kd [7] | Kd [8] | Kd [9] | Kd [10] | Structure (SMILES)
9 | > 30 µM (inactive) | > 30 µM (inactive) | > 30 µM (inactive) | > 30 µM (inactive) | > 30 µM (inactive) | 0.422 µM (active) | > 30 µM (inactive) | > 30 µM (inactive) | > 30 µM (inactive) | > 30 µM (inactive) | C=CC(=O)Nc1cc2c(Nc3ccc(F)c(Cl)c3)ncnc2cc1C#CC(C)(C)N1CCN(C)CC1 [AV-412 FREE BASE]
10 | > 30 µM (inactive) | > 30 µM (inactive) | > 30 µM (inactive) | > 30 µM (inactive) | > 30 µM (inactive) | > 30 µM (inactive) | > 30 µM (inactive) | > 30 µM (inactive) | > 30 µM (inactive) | > 30 µM (inactive) | Cc1cc(C(=O)NOCCO)c(Nc2ccc(I)cc2F)n(C)c1=O [AZD-8330]
11 | > 30 µM (inactive) | > 30 µM (inactive) | > 30 µM (inactive) | > 30 µM (inactive) | > 30 µM (inactive) | > 30 µM (inactive) | > 30 µM (inactive) | > 30 µM (inactive) | > 30 µM (inactive) |  | C#Cc1cccc(Nc2ncnc3cc(OC)c(OCCCCCCC(=O)NO)cc23)c1 [CUDC-101]
12 | > 30 µM (inactive) | > 30 µM (inactive) | > 30 µM (inactive) | > 30 µM (inactive) | > 30 µM (inactive) | > 30 µM (inactive) | > 30 µM (inactive) | > 30 µM (inactive) | > 30 µM (inactive) |  | Cn1cc(-c2cnc3ccc4ccc(CS(=O)(=O)NCc5ccccn5)cc4c(=O)c3c2)cn1 [MK-8033]
13 | > 30 µM (inactive) | > 30 µM (inactive) | > 30 µM (inactive) | > 30 µM (inactive) | > 30 µM (inactive) | > 30 µM (inactive) | > 30 µM (inactive) | > 30 µM (inactive) | > 30 µM (inactive) |  | CO[C@H]1C[C@@H]2CC[C@@H](C)[C@@](O)(O2)C(=O)C(=O)N2CCCC[C@H]2C(=O)O[C@H]([C@H](C)C[C@@H]2CC[C@@H](OP(C)(C)=O)[C@H](OC)C2)CC(=O)[C@H](C)/C=C(\C)[C@@H](O)[C@@H](OC)C(=O)[C@H](C)C[C@H](C)/C=C/C=C/C=C/1C [RIDAFOROLIMUS]
14 | > 30 µM (inactive) | > 30 µM (inactive) | > 30 µM (inactive) | > 30 µM (inactive) | > 30 µM (inactive) | > 30 µM (inactive) | > 30 µM (inactive) | > 30 µM (inactive) | > 30 µM (inactive) |  | Cn1cc(-c2cnn3c(N)c(Br)c([C@@H]4CCCNC4)nc23)cn1 [SCH-900776]
